# Results as given in ChEMBL document CHEMBL1201862, “PubChem BioAssay data set” (2004).
# Active and inactive are the calls of the source.
# Experiments:
# [1] = molecular target: T1, Heat shock factor protein 1 (Mus musculus, UniProt P38532); test: inhibition of MG132-induced HSE-luciferase signal, confirmation, cell-based, NIH3T3, luminescence, dose retest (AID 2382); format: functional;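 also: NIH3T3 fibroblasts with HSF1-driven luciferase reporter stressed by proteasome inhibitor MG132; luminescence from HSF1-driven luciferase expression after 8 hours of MG132 stress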
# T1 sequence (P38532 whole entry): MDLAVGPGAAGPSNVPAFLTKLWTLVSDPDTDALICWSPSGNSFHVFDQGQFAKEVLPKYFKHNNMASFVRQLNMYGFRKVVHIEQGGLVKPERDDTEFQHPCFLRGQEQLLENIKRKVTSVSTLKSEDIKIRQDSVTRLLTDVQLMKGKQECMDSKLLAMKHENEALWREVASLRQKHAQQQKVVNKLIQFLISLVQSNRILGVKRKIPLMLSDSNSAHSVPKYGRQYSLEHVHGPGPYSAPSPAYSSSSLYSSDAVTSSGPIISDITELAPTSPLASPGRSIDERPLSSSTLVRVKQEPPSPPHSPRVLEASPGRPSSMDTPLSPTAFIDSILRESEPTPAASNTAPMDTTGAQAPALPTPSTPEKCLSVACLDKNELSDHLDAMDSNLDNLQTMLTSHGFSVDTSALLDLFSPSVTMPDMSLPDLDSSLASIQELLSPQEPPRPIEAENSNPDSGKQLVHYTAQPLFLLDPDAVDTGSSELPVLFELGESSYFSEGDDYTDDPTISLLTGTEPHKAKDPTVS
# [2] = molecular target: T1, Heat shock factor protein 1; test: HSF1 potentiators in luciferase reporter cells, confirmation, cell-based, NIH3T3, luminescence, dose retest (AID 435004); format: functional;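 also: stress induced by proteasome inhibitor MG132 added 30 min after compound; luciferase reporter driven by HSF1 response element in NIH3T3 cells; actives raise luminescence as potentiators of the MG132 stress response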
# [3] = molecular target: Cytochrome P450 2C9 (Homo sapiens, UniProt P11712)
# Cytochrome P450 2C9, sequence (P11712 whole entry): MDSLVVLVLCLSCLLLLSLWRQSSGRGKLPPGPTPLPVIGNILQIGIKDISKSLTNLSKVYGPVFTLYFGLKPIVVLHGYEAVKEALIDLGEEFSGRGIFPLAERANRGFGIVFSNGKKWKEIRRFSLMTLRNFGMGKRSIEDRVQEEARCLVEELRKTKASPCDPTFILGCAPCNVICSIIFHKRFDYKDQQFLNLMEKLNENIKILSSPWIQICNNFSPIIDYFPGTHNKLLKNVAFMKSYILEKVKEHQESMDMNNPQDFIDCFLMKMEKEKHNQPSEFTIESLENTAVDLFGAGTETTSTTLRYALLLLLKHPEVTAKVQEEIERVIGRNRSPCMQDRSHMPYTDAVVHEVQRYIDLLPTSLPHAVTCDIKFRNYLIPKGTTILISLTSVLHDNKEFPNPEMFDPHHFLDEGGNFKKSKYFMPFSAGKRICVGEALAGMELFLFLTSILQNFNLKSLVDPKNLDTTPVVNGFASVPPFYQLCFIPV
# [4] = molecular target: T2, Protein RecA (Mycobacterium tuberculosis, UniProt P9WHJ3); test: Fluorescence Cell-Free Homogeneous Dose Retest to Identify Inhibitors of RecA-Intein Splicing Activity. [Related pubchem assays (depositor defined):AID2097, AID2223, AID489010, AID492950]; format: functional
# T2 sequence (P9WHJ3 whole entry): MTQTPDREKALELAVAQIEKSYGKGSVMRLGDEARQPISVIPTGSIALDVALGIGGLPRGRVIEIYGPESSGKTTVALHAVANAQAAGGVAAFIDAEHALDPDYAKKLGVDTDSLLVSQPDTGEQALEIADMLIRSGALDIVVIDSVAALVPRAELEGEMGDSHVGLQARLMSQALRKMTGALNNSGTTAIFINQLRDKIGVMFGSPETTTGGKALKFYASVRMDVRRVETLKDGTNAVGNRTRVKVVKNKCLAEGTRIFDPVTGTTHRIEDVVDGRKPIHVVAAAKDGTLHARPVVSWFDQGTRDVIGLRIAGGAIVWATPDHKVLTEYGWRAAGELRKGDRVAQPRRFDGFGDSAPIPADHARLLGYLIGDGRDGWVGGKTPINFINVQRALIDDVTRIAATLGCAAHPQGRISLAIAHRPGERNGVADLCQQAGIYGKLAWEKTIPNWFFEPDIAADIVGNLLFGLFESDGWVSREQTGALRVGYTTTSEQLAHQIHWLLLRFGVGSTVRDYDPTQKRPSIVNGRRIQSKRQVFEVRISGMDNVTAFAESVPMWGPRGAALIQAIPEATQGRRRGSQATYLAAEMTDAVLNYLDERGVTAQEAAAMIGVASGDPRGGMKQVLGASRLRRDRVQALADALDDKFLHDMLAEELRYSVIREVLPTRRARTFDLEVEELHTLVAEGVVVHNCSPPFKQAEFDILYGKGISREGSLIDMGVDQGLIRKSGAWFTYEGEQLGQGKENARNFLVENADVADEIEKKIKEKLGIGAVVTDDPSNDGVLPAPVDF
# [5] = molecular target: T3, Replicative DNA helicase DnaB (Mycobacterium tuberculosis, UniProt P9WMR3); test: DnaB intein splicing inhibitors, dose response, biochemical, cell-free fluorescence (AID 449749); format: functional
# T3 sequence (P9WMR3 whole entry): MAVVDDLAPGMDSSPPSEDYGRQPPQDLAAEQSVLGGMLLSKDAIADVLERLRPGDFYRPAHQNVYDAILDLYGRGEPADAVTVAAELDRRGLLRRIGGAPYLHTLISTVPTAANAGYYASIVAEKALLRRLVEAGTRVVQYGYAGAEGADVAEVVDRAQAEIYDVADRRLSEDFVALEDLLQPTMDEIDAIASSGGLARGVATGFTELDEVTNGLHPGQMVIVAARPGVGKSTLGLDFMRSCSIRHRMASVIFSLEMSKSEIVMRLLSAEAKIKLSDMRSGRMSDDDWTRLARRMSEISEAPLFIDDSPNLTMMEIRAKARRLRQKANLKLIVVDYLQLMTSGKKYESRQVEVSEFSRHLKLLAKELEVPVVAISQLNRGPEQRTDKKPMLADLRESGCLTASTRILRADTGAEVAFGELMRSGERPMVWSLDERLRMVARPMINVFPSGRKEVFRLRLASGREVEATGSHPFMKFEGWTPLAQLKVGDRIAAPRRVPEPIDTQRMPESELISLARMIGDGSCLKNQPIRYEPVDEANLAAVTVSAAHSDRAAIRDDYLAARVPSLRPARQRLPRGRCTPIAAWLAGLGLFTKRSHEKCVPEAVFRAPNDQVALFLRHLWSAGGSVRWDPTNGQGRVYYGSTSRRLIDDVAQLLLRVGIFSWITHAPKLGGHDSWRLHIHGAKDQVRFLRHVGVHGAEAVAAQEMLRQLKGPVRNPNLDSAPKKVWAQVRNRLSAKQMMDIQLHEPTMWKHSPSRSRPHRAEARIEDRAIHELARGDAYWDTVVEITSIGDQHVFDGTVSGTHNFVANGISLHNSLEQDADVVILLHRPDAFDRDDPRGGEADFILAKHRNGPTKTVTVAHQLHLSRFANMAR
# [6] = molecular target: Cytochrome P450 2C19 (Homo sapiens, UniProt P33261); test: Cytochrome panel assay with activity outcomes. Panel member name: p450-cyp2c19 Compounds with AC50 equal or less than 10 uM are considered active; format: functional; conditions: read-out: AC50
# Cytochrome P450 2C19, sequence (P33261 whole entry): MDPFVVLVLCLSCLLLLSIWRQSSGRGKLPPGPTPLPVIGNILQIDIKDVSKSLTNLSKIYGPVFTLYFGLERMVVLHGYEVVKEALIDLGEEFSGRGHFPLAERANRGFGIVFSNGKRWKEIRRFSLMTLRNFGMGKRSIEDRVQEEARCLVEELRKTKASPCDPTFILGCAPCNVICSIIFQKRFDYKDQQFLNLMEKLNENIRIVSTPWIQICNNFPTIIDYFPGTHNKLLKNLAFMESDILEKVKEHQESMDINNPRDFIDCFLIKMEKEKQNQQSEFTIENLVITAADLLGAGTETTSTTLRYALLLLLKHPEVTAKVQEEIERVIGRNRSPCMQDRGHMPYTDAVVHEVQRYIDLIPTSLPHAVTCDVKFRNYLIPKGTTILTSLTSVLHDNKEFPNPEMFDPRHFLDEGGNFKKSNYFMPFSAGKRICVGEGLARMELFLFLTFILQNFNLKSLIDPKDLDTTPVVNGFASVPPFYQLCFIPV
# [7] = inhibitors of firefly luciferase expression or activity, dose response, H4 neuroglioma cells, luminescence (AID 1990); format: functional, cell-based
# [8] = inhibitors of intracellular T. cruzi replication, confirmation, NIH3T3 host cells, beta-gal luminescence (AID 2044); format: functional, cell-based;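 also: intracellular parasites grown in NIH/3T3 mouse fibroblasts as host cells; luminescent beta-galactosidase reporter signal from transgenic T. cruzi replicating inside host cells; inhibitors lower the luminescence signal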
# [9] = cytotoxicity toward NIH3T3 fibroblasts, dose response, counter-screen, cell-based, ATP luminescence, mouse fibroblasts (AID 2010); format: functional;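 also: cells exposed to compound for about 90 hours before reading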
# [10] = inhibitors of SNCA 5'UTR-driven reporter translation, confirmation, H4 neuroglioma cells, luminescence (AID 1988); format: functional, cell-based
# [11] = Luminescence Cell-Based Dose Response HTS to Identify Inhibitors of 5'UTR Stem-Loop Driven Prion Protein mRNA Translation in H4 Neuroglioblastoma Cells. [Related pubchem assays: 1827 (Project Summary), 1813 (Primary HTS)]; format: functional
smiles,measurement,setting,value
O=C(Nc1ccc2[nH]ncc2c1)c1ccccc1Cl,EC50,[1],> 195 µM (not active)
Cc1ccc2c(c1)N(Cc1ccc([N+](=O)[O-])cc1)C=NS2(=O)=O,EC50,[1],> 195 µM (not active)
CN1CCN(C(=O)c2cc([N+](=O)[O-])cc([N+](=O)[O-])c2)CC1,EC50,[1],> 195 µM (not active)
CCc1ccc(NC(=O)COC(=O)/C=C/c2c(C)nn(C3CCS(=O)(=O)C3)c2Cl)cc1 (stereo unspecified),EC50,[2],> 260 µM (inactive)
O=C(Cc1ccccc1)NC(=S)Nc1cc(C(F)(F)F)ccc1Cl,AC50,[3],3.55 µM (inconclusive)
CCN1C(=O)[C@H]2[C@@H](c3ccc(C)cc3)N3C(=O)N(c4ccc(C)cc4)C(=O)[C@@]3(C)[C@H]2C1=O,EC50,[1],> 195 µM (not active)
COC(=O)c1c(N2C(=O)[C@H]3[C@@H](C2=O)[C@]2(C(=O)Nc4c(C)cccc42)N2CCC[C@@H]32)sc(C)c1C,EC50,[1],> 195 µM (not active)
CN(C)c1ccc(C(=O)n2nnc3ccccc32)cc1,EC50,[4],9.71 µM (active)
same,AC50,[5],7.46 µM (active)
O=C1CC(N2C(=O)/C(=C/C=C/c3ccccc3)SC2=S)C(=O)N1c1ccccc1 (stereo unspecified),EC50,[2],> 260 µM (inactive)
COc1cc(C(=O)N(C)C2CCCN(Cc3ccccc3F)C2)cc(OC)c1OC (stereo unspecified),EC50,[1],> 195 µM (not active)
CC(C)C(C(=O)NCC1CCCO1)N(Cc1ccco1)C(=O)CNS(=O)(=O)c1ccc(F)cc1 (stereo unspecified),AC50,[6],11.2 µM (inconclusive)
same,AC50,[3],39.8 µM (inconclusive)
COc1ccc2[nH]c(CN3CCC(CO)(CCOc4ccccc4)CC3)c(C)c2c1,EC50,[4],> 380 µM (inactive)
same,AC50,[5],> 380 µM (inactive)
COc1ccc(N(CC(=O)Nc2cccc(C)c2)S(=O)(=O)c2c(C)noc2C)cc1,EC50,[1],> 195 µM (not active)
CCOc1ccc(NC(=S)N(CCc2ccncc2)C(C)C)cc1,EC50,[1],> 195 µM (not active)
CCC12C(=O)C(CC)(C(c3ccccc3)=C1c1ccccc1)[C@@H]1C(=O)N(c3ccc(C)cc3)C(=O)C12 (stereo partly specified),EC50,[7],14.8 µM (active)
same,EC50,[8],2.87 µM (active)
same,EC50,[9],> 30 µM (not active)
same,EC50,[10],> 120 µM (not active)
same,EC50,[11],> 120 µM (not active)
O=S(=O)(NCc1ccccn1)c1ccc2ccccc2c1,EC50,[2],> 260 µM (inactive)
COc1cccc(NC=C2C(=O)CC(C)(C)CC2=O)c1,EC50,[2],8.09 µM (active)
COc1c([N+](=O)[O-])c(=O)oc2ccccc12,EC50,[1],> 195 µM (not active)
CCN(C1CCS(=O)(=O)C1)S(=O)(=O)c1cccs1 (stereo unspecified),EC50,[1],> 195 µM (not active)
Clc1ccccc1-c1cncnc1NCc1cccs1,AC50,[3],0.794 µM (inconclusive)
Cc1n[nH]c(O)c1C(c1ccc(F)cc1)c1c(C)n[nH]c1O,EC50,[4],0.291 µM (active)
same,AC50,[5],0.628 µM (active)
Cc1ccccc1/[N+]([O-])=C/c1cccs1,EC50,[2],> 260 µM (inactive)
Fc1ccccc1-c1nc2nc3ccccc3nc2n1CC1CCCO1 (stereo unspecified),EC50,[2],> 260 µM (inactive)
CCOc1ccccc1-c1noc(CCCC(=O)NC2CCCCC2)n1,EC50,[2],> 260 µM (inactive)
COc1ccc(Cc2noc(-c3ccc(OC)c(OC)c3)n2)cc1OC,EC50,[7],> 120 µM (not active)
same,EC50,[10],> 120 µM (not active)
same,EC50,[11],> 120 µM (not active)
Cc1ccc2oc(C(=O)N3CCC(C(N)=O)(N4CCCCC4)CC3)c(C)c2c1,EC50,[1],> 195 µM (not active)
Cc1sc2ncnc(N3CCOCC3)c2c1C,EC50,[7],20.4 µM (active)
same,EC50,[10],17.5 µM (active)
same,EC50,[11],40.6 µM (active)
Cc1n[nH]c(O)c1C(c1ccc2c(c1)OCO2)c1c(C)n[nH]c1O,EC50,[4],0.189 µM (active)
same,AC50,[5],0.324 µM (active)
O=S1(=O)C=C(N2CCOCC2)c2ccccc21,AC50,[3],39.8 µM (inconclusive)
CC1(c2cccs2)CC(c2cccs2)=C(C#N)C(=O)N1 (stereo unspecified),EC50,[2],> 260 µM (inactive)
O=C(NCc1nc2ccccc2[nH]1)C1=C[C@@H](c2ccc3c(c2)OCO3)C[C@@H](OCc2ccc(CO)cc2)O1,EC50,[1],> 195 µM (not active)
O=C(Nc1ccc2c(c1)ncn2C1CCCCC1)c1ccco1,EC50,[1],> 195 µM (not active)
CCOc1ccccc1NC(=O)Cn1nnc(C(=O)NCc2ccc3c(c2)OCO3)c1N,EC50,[7],> 120 µM (not active)
same,EC50,[10],> 120 µM (not active)
same,EC50,[11],36.7 µM (active)
CCO/C(O)=C1/C(C)=Nc2ncnn2C1c1cccnc1 (stereo unspecified),AC50,[6],22.4 µM (inconclusive)
same,AC50,[3],25.1 µM (inconclusive)
CCCN(CCC)C(=O)CSc1nc2nnc(C)c-2c(N)n1-c1ccc(OC)cc1,EC50,[7],19.3 µM (active)
same,EC50,[10],16.1 µM (active)
same,EC50,[11],19.8 µM (active)
O=C(Nc1cccc(-c2ccc(F)cc2)c1)C1CCCN(C(=O)c2cscn2)C1 (stereo unspecified),EC50,[1],> 195 µM (not active)
COc1ccc(Cl)cc1N1C(=O)/C(=C\c2sccc2C)N=C1SCC(=O)NC1CC1,EC50,[2],> 260 µM (inactive)
COc1ccc(N2CCN(C(=O)COC(=O)CCOc3ccccc3C)CC2)cc1,EC50,[1],> 195 µM (not active)
O=C(Cc1cccs1)NCc1ccccc1Br,EC50,[2],> 260 µM (inactive)
N#Cc1ccc(CN2CCC3(CC2)CCN(C(=O)c2cnccn2)CC3)cc1,AC50,[3],39.8 µM (inconclusive)
Cc1cc(C)n(-c2nc3ccccc3s2)n1,EC50,[1],> 195 µM (not active)
COC(=O)Nc1ccc(S(=O)(=O)Nc2cccc3ccccc23)cc1,EC50,[2],> 260 µM (inactive)
COc1ccc(N2CCN(C(c3cccs3)C(C)NS(=O)(=O)c3ccccc3)CC2)cc1 (stereo unspecified),EC50,[2],> 260 µM (inactive)
CN1CCN(C(=O)c2ccc(Cn3cc(Cl)cn3)o2)CC1,EC50,[2],> 260 µM (inactive)
CC(C)C(C)N(Cc1ccc(C(=O)O)cc1)C(=O)c1ccc2ccccc2n1 (stereo unspecified),EC50,[2],> 260 µM (inactive)
COc1cc(OC)cc(C(=O)N/N=C(\C)CC(=O)Nc2ccccn2)c1,EC50,[4],7.81 µM (active)
same,AC50,[5],13.1 µM (active)
S=C1NCCN1 [ETHYLENE THIOUREA],EC50,[1],> 195 µM (not active)
